What is called Ki is a dissociation constant, usually derived from enzyme kinetics or from competition with a known ligand.

Structures are written as SMILES. Where only a bound is given, the exact number is not on record here.

Chain of ERK2 (P28482 whole entry): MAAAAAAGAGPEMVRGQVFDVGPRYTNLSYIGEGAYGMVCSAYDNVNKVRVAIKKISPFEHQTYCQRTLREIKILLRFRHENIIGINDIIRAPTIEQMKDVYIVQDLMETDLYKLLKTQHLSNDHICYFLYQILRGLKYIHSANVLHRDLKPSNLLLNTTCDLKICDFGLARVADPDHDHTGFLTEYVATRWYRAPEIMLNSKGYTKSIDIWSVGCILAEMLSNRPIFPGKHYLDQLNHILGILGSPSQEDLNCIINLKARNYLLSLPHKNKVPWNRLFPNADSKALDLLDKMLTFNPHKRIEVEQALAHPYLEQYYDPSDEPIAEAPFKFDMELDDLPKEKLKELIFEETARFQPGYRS

One test has as its target ERK2 (Homo sapiens, UniProt P28482). Briefly: ERK2 inhibition assay (spectrophotometric coupled-enzyme assay). It is filed as biochemical. Particulars: ERK2 Inhibitory Activity (Ki class D-F). As for the experimental part: The IC50 was evaluated from the rate data as a function of inhibitor concentration. […] The compound numbers correspond to the compound numbers in Table 1.
Consider `Cc1cnc(Nc2nc(N3CCCCC3)nc3ccccc23)nc1-c1c[nH]c(C(=O)NCc2ccccc2)c1` [III-a-133, 4-[5-Methyl-2-(2-piperidin-1-yl-quinazolin-4-ylamino)-pyrimidin-4-yl]-1H-pyrrole-2-carboxylic acid benzylamide], for which the Ki was > 1000 nM.

Still in this test, the particulars now being: read-out: ERK2 Inhibitory Activity (Ki class D-F).
Take `O=C(NCc1ccc2c(c1)OCO2)c1cc(-c2nc(Nc3ccccc3)ncc2-c2cc(Cl)cc(Cl)c2)c[nH]1` [III-a-103, 4-[5-(3,5-Dichloro-phenyl)-2-phenylamino-pyrimidin-4-yl]-1H-pyrrole-2-carboxylic acid (benzo[1,3]dioxol-5-ylmethyl)-amide]: the Ki is > 1000 nM.

In the case of `Nc1ncc(-c2cc(F)cc(C(F)(F)F)c2)c(-c2c[nH]c(C(=O)NC(CO)c3ccccc3)c2)n1` (stereo not drawn) [III-a-105, 4-[2-Amino-5-(3-fluoro-5-trifluoromethyl-phenyl)-pyrimidin-4-yl]-1H-pyrrole-2-carboxylic acid (2-hydroxy-1-phenyl-ethyl)-amide], the Ki was in the range of 100 to 1000 nM. For `Cc1cnc(N)nc1-c1c[nH]c(C(=O)NCCc2cccnc2)c1` [III-a-107, 4-(2-Amino-5-methyl-pyrimidin-4-yl)-1H-pyrrole-2-carboxylic acid (2-pyridin-3′-yl-ethyl)-amide], the Ki was > 1000 nM. On the same count and under the same terms, the value for `CCCNC(=O)c1cc(-c2nc(Nc3ccccc3)ncc2C)c[nH]1` [III-a-111, 4-(5-Methyl-2-phenylamino-pyrimidin-4-yl)-1H-pyrrole-2-carboxylic acid propylamide] was < 100 nM; that for `Cc1cnc(Nc2ccccc2)nc1-c1c[nH]c(C(=O)NCCCc2ccccc2)c1` [III-a-112, 4-(5-Methyl-2-phenylamino-pyrimidin-4-yl)-1H-pyrrole-2-carboxylic acid (3-phenyl-propyl)-amide] was < 100 nM. The same measure, in the same setting: the value for `CCNc1ncc(C)c(-c2c[nH]c(C(=O)NC3CC3)c2)n1` [III-a-114, 4-(2-Ethylamino-5-methyl-pyrimidin-4-yl)-1H-pyrrole-2-carboxylic acid cyclopropylamide] was > 1000 nM; that for `Cc1cnc(Nc2ccccc2)nc1-c1c[nH]c(C(=O)NCCN)c1` [III-a-120, 4-(5-Methyl-2-phenylamino-pyrimidin-4-yl)-1H-pyrrole-2-carboxylic acid (2-amino-ethyl)-amide] was 100 to 1000 nM. On the same count and under the same terms, the result for `CCN(CC)CCNc1ncc(C)c(-c2c[nH]c(C(=O)NCc3ccc(F)c(F)c3)c2)n1` [III-a-132, 4-[2-(2-Diethylamino-ethylamino)-5-methyl-pyrimidin-4-yl]-1H-pyrrole-2-carboxylic acid 3i4-difluoro-benzylamide] reads > 1000 nM; that for `COCc1cnc(Nc2ccccc2)nc1-c1c[nH]c(C(=O)NC(CO)c2ccccc2)c1` (stereo not drawn) [III-a-160, 4-(5-Methoxymethyl-2-phenylamino-pyrimidin-4-yl)-1H-pyrrole-2-carboxylic acid (2-hydroxy-1-phenyl-ethyl)-amide], 100 to 1000 nM. In the case of `COCc1cnc(N)nc1-c1c[nH]c(C(=O)N[C@H](CO)c2ccccc2)c1` [III-a-161, 4-(2-Amino-5-methoxymethyl-pyrimidin-4-yl)-1H-pyrrole-2-carboxylic acid (2-hydroxy-1-phenyl-ethyl)-amide], the Ki fell in the range of 100 to 1000 nM. The same measure, in the same setting: the value for `CCCNc1ncc(C)c(-c2c[nH]c(C(=O)NC(CO)c3ccccc3)c2)n1` (stereo not drawn) [III-a-163, 4-(5-Methyl-2-propylamino-pyrimidin-4-yl)-1H-pyrrole-2-carboxylic acid (2-hydroxy-1-phenyl-ethyl)-amide] was < 100 nM. On the same count and under the same terms, the result for `CCNc1ncc(C)c(-c2c[nH]c(C(=O)NC(C)C(O)c3ccccc3)c2)n1` (stereo not drawn) [III-a-168, 4-(2-Ethylamino-5-methyl-pyrimidin-4-yl)-1H-pyrrole-2-carboxylic acid (2-hydroxy-1-methyl-2-phenyl-ethyl)-amide] reads > 1000 nM; that for `CCNc1ncc(C)c(-c2c[nH]c(C(=O)NCC(O)c3ccccc3)c2)n1` (stereo not drawn) [III-a-169, 4-(2-Ethylamino-5-methyl-pyrimidin-4-yl)-1H-pyrrole-2-carboxylic acid (2-hydroxy-2-phenyl-ethyl)-amide], 100 to 1000 nM; that for `CCNc1ncc(C)c(-c2c[nH]c(C(=O)NC(CO)C(O)c3ccccc3)c2)n1` (stereo not drawn) [III-a-170, 4-(2-Ethylamino-5-methyl-pyrimidin-4-yl)-1H-pyrrole-2-carboxylic acid (2-hydroxy-1-hydroxymethyl-2-phenyl-ethyl)-amide], > 1000 nM. Turning to `CCNc1ncc(C)c(-c2c[nH]c(C(=O)NC(CO)C(O)c3ccccc3)c2)n1` (stereo not drawn) [III-a-171, 4-(2-Ethylamino-5-methyl-pyrimidin-4-yl)-1H-pyrrole-2-carboxylic acid (2-hydroxy-1-hydroxymethyl-2-phenyl-ethyl)-amide], the Ki was > 1000 nM.

As to `CC(C(O)c1ccccc1)N(C)C(=O)c1cc(-c2ccnc(N)n2)c[nH]1` (stereo not drawn) [III-a-180, 4-(2-Amino-pyrimidin-4-yl)-1H-pyrrole-2-carboxylic acid (2-hydroxy-1-methyl-2-phenyl-ethyl)-methyl-amide], the Ki was > 1000 nM.

In the case of `CCNc1ncc(C)c(-c2c[nH]c(C(=O)NC(CO)c3ccccc3F)c2)n1` (stereo not drawn) [III-a-192, 4-(2-Ethylamino-5-methyl-pyrimidin-4-yl)-1H-pyrrole-2-carboxylic acid [1-(2-fluoro-phenyl)-2-hydroxy-ethyl]-amide], the Ki lay within 100 to 1000 nM.

As to `CCONc1ncc(C)c(-c2c[nH]c(C(=O)N[C@H](CO)c3ccccc3)c2)n1` [III-a-195, 4-(2-Ethoxyamino-5-methyl-pyrimidin-4-yl)-1H-pyrrole-2-carboxylic acid (2-hydroxy-1-phenyl-ethyl)-amide], the Ki is < 100 nM.

Consider `CCNc1ncc(C)c(-c2c[nH]c(C(=O)NC(C(C)=O)c3ccccc3)c2)n1` (stereo not drawn) [III-a-197, 4-(2-Ethylamino-5-methyl-pyrimidin-4-yl)-1H-pyrrole-2-carboxylic acid (2-oxo-1-phenyl-propyl)-amide], for which the Ki was > 1000 nM. Take `CCOC(=O)NNc1ncc(C)c(-c2c[nH]c(C(=O)N[C@H](CO)c3ccccc3)c2)n1` [III-a-218, N′-{4-[5-(2-Hydroxy-1-phenyl-ethylcarbamoyl)-1H-pyrrol-3-yl]-5-methyl-pyrimidin-2-yl}-hydrazinecarboxylic acid ethyl ester]: the Ki was in the range of 100 to 1000 nM. Consider `Cc1cnc(NCc2cccnc2)nc1-c1c[nH]c(C(=O)NC(CO)c2ccccc2)c1` (stereo not drawn) [III-a-219, 4-{5-Methyl-2-[(pyridin-3-ylmethyl)-amino]-pyrimidin-4-yl}-1H-pyrrole-2-carboxylic acid (2-hydroxy-1-phenyl-ethyl)-amide], for which the Ki was < 100 nM.

With `Cc1cnc(NOCC2CC2)nc1-c1c[nH]c(C(=O)NC(CO)c2ccccc2)c1` (stereo not drawn) [III-a-220, 4-(2-Cyclopropylmethoxyamino-5-methyl-pyrimidin-4-yl)-1H-pyrrole-2-carboxylic acid (2-hydroxy-1-phenyl-ethyl)-amide], the Ki is < 100 nM. On the same count and under the same terms, the result for `Cc1cnc(Nc2ccon2)nc1-c1c[nH]c(C(=O)NC(CO)c2ccccc2)c1` (stereo not drawn) [III-a-221, 4-[2-(Isoxazol-3-ylamino)-5-methyl-pyrimidin-4-yl]-1H-pyrrole-2-carboxylic acid (2-hydroxy-1-phenyl-ethyl)-amide] reads < 100 nM; that for `Cc1cnc(NN(C)C)nc1-c1c[nH]c(C(=O)N[C@H](CO)c2ccccc2)c1` [III-a-226, 4-[2-(N′,N′-Dimethyl-hydrazino)-5-methyl-pyrimidin-4-yl]-1H-pyrrole-2-carboxylic acid (2-hydroxy-1-(S)-phenyl-ethyl)-amide], < 100 nM. Same read-out and setting: the result for `Cc1cc(Nc2ncc(C)c(-c3c[nH]c(C(=O)NC(CO)c4ccccc4)c3)n2)no1` (stereo not drawn) [III-a-229, 4-[5-Methyl-2-(5-methyl-isoxazol-3-ylamino)-pyrimidin-4-yl]-1H-pyrrole-2-carboxylic acid (2-hydroxy-1-phenyl-ethyl)-amide] reads 100 to 1000 nM; that for `CCC(CO)Nc1ncc(C)c(-c2c[nH]c(C(=O)NC(CO)c3cccc(C)c3)c2)n1` (stereo not drawn) [III-a-234, 4-[2-(1-Hydroxymethyl-propylamino)-5-methyl-pyrimidin-4-yl]-1H-pyrrole-2-carboxylic acid (2-hydroxy-1-m-tolyl-ethyl)-amide], < 100 nM. The same measure, in the same setting: the value for `Cc1cnc(NC(CO)CO)nc1-c1c[nH]c(C(=O)NC(CO)c2ccccc2)c1` (stereo not drawn) [III-a-235, 4-[2-(2-Hydroxy-1-hydroxymethyl-ethylamino)-5-methyl-pyrimidin-4-yl]-1H-pyrrole-2-carboxylic acid (2-hydroxy-1-phenyl-ethyl)-amide] was < 100 nM.

On to `CCC(CO)Nc1ncc(C)c(-c2c[nH]c(C(=O)NC(CO)c3ccccc3)c2)n1` (stereo not drawn) [III-a-236, 4-[2-(1-Hydroxymethyl-propylamino)-5-methyl-pyrimidin-4-yl]-1H-pyrrole-2-carboxylic acid (2-hydroxy-1-phenyl-ethyl)-amide], for which the Ki was < 100 nM. Same read-out and setting: the result for `Cc1cnc(NC2CC2C)nc1-c1c[nH]c(C(=O)NC(CO)c2ccccc2)c1` (stereo not drawn) [III-a-237, 4-[5-Methyl-2-(2-methyl-cyclopropylamino)-pyrimidin-4-yl]-1H-pyrrole-2-carboxylic acid (2-hydroxy-1-phenyl-ethyl)-amide] reads < 100 nM.

Values taken from patent US7253187B2, “Heterocyclic inhibitors of ERK2 and uses thereof” (Vertex Pharmaceuticals Incorporated, priority 2001, dated 2007).
